Structures can show the parent of a compound that is named as a salt.
Legend:
h12/15-LOX = h12/15-LOX (Homo sapiens (Human), UniProt P16050); assay: 12/15-LOX enzyme inhibition IC50 assay (Examples 1 and 2); assay type: biochemical
Procedure: Enzyme was then added to the cuvettes. […] The % inhibition for each test compound concentration were calculated as follows: […]

[1] = Aqueous solubility of exemplified compounds (Example 3); assay type: physicochemical
[2] = Hydrolysis of prodrug in plasma; assay type: in vitro ADME
Procedure: (§1) 20 mg/ml were obtained in 20% Captisol, allowing for intravenous delivery in the mouse stroke model.

[3] = Solubility in formulation vehicles (Solutol HS-15/PEG400, Captisol); assay type: physicochemical; conditions: aqueous with cosolvent or surfactant or cyclodextrin
Procedure: Combinations of Solutol HS-15 (also known as Kolliphor HS-15) with PEG400 provided a good vehicle to solubilize the tested compounds. Specifically, 10% Solutol/90% PEG400 was used to prepare 20 mg/ml solutions of compound 1, compound 44, and compound 32. 10% Solutol/15% H2O/[…] led to 10 mg/ml solutions of the tested compounds.
as §1

[4] = In vivo conversion of prodrug to parent compound
Procedure: FIG. 1 contains chemical schemes showing in vivo conversion of prodrug compounds 51, 52, 53 to their parent compounds 22, 1, and 1, respectively.
as §1

[5] = tested on: experimental stroke model in mice (MCAO); assay: Mouse stroke model, filament middle cerebral artery occlusion (MCAO), infarct size; assay type: in vivo; conditions: 40 mg/kg i.v. in 50% Captisol, immediately after reperfusion, 24 h
Procedure: Studies were carried out in experimental stroke model in mice, using the filament model of middle cerebral artery occlusion (MCAO). For intraperitoneal delivery, compounds were dissolved in DMSO. A number of exemplified compounds were able to reduce infarct size when given at a dosage of 40 mg/kg.
40 mg/kg cmpd. 1 were given i.p. at time of reperfusion. Infarct size was measured at 24 hours after 60 minutes MCAO.
MCAO (Experimental Middle Cerebral Artery Ischemia and Functional Recovery) experiment: 40 mg/kg of compound delivered intraperitoneally 2 h post reperfusion, 60 minutes MCAO, sacrifice at 24 h, infarct size determined by TTC staining.

h12/15-LOX, sequence (P16050 whole entry): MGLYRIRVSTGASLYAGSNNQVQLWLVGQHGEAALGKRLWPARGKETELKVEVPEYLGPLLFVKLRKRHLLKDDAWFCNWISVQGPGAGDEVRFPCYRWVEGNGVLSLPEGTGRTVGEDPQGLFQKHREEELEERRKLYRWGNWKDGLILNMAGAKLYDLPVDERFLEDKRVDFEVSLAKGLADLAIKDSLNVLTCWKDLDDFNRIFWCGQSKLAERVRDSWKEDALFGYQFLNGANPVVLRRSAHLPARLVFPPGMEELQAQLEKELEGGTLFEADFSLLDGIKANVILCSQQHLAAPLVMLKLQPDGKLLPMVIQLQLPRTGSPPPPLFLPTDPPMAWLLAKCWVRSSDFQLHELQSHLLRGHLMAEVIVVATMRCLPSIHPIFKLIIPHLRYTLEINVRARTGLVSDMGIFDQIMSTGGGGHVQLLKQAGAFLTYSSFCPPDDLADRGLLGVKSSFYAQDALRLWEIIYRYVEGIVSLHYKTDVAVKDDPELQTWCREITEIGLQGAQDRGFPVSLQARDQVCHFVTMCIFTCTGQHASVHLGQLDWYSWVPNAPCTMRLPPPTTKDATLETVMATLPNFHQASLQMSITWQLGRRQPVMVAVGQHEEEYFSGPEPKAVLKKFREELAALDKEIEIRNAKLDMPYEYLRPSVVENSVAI

## N#Cc1nc(-c2cc(Cl)cc(Cl)c2Cl)oc1NCCCCCOP(=O)(O)O [Compound 51, 5-((4-cyano-2-(2,3,5-trichlorophenyl)oxazol-5-yl)amino) pentyl dihydrogen phosphate]
h12/15-LOX
  IC50: > 20000 nM
[1]
  aqueous solubility versus parent compound: high aqueous solubility versus parent compound 22
[2]
  hydrolysis in plasma: susceptible to hydrolysis in plasma

## CN(C)CCCOC(=O)N(C)c1oc(-c2cc(Cl)cc(Cl)c2Cl)nc1C#N [Compound 52, 3-(dimethylamino) propyl (4-cyano-2-(2,3,5-trichlorophenyl)oxazol-5-yl)(methyl) carbamate hydrochloride]
h12/15-LOX
  IC50: 1400 nM
[3]; 20% Captisol
  solubility: 20 mg/mL
[3]; 50% Captisol solution
  solubility: 27 mg/mL
[4]
  in vivo processing of prodrug: processed to the parent molecule, compound 1
[5]; hydrochloride
  infarct size reduction: 31.7%
[5]; listed as Cmpd. 52, hydrochloride
  infarct size reduction: 31.7%

Source: patent US20240336642A1 (The General Hospital Corporation, priority 2021, published 2024)
